Measured values published in ChEMBL document CHEMBL5120812, “Cytotoxic Nitrobenzoyl Sesquiterpenoids from an Antarctica Sponge-Derived Aspergillus insulicola” (J Nat Prod, 2022).
Where a name gives a salt, the structure may show the parent alone.

Legend:
Assay type in all cases: functional, cell-based
[1] = tested on: PANC-1; assay: Cytotoxicity against human PANC-1 cells assessed as inhibition of cell growth incubated for 72 hrs by SRB assay; conditions: PANC-1, 72 h
[2] = tested on: ASPC1; assay: Cytotoxicity against human ASPC1 cells assessed as inhibition of cell growth incubated for 72 hrs by SRB assay; conditions: ASPC1, 72 h
[3] = tested on: MDA-MB-231; assay: Cytotoxicity against human MDA-MB-231 cells assessed as inhibition of cell growth incubated for 72 hrs by SRB assay; conditions: MDA-MB-231, 72 h

SMILES: COc1cccc2c1C(=O)c1c(O)c3c(c(O)c1C2=O)C[C@@](O)(C(=O)CO)C[C@@H]3O[C@H]1C[C@H](N)[C@H](O)[C@H](C)O1 [DOXORUBICIN HYDROCHLORIDE]
- IC50 [1]: 900 nM
- IC50 [2]: 300 nM
- IC50 [3]: 200 nM
